This is an account of results in patent US20140135310A1, “SULPHONAMIDE DERIVATIVES OF ALICYCLIC AMINES FOR THE TREATMENT OF CENTRAL NERVOUS SYSTEM DISEASES” (Adamed Sp. z o.o., priority 2011, published 2014).

Molecules are shown by their SMILES.

Broadly, the inhibition is the change of the read-out against control, counted positive when it falls. For orientation: Ki means a dissociation constant, usually derived from enzyme kinetics or from competition with a known ligand.

The target of assay [1] is dopaminergic receptors D3 (Homo sapiens, UniProt P35462). As to the kind of experiment: Radioligand binding assay, dopaminergic D3 receptors. To be noted: test compound 1×10^−6 M. The gist of the method: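 Scintillation read-out. Specific = total − nonspecific (excess cold ligand). Data as % of control specific binding / % inhibition; IC50 by Hill fit; Ki = IC50/(1+L/KD), KD from Scatchard plot.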

In assay [2] the target is T1, 5-HT1A receptor (rat hippocampus) (Rattus norvegicus, UniProt P19327).
T1 construct: hippocampus; from tissue; host or cells: rat hippocampus
T1 sequence (P19327 1-422): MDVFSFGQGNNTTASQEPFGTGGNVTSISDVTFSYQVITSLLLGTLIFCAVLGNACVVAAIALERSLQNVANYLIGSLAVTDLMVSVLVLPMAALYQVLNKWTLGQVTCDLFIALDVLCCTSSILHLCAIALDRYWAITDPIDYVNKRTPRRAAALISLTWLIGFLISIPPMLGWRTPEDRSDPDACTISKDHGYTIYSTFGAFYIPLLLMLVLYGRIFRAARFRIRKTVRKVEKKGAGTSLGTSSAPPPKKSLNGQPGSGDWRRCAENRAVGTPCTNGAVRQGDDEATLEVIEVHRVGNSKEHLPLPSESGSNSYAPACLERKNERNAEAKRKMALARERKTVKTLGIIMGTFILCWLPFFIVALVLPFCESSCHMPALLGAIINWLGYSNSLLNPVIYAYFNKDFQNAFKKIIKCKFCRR
As to the kind of experiment: Radioligand binding assay, serotoninergic 5-HT1A receptors.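 Also: test compound at 1 µM.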 The settings on record: binding assay result in %, Table 5a.

Assay [3] addresses T2, 5-HT2A receptor (Homo sapiens, UniProt P28223).
T2 construct: purchased PerkinElmer
The experiment in a line: Radioligand binding assay, serotoninergic 5-HT2A receptors. The settings on record: for Ki: read-out: Inhibition constants Ki, 5-HT2A; for inhibition at 1 µM / 5-HT2A [%]: binding assay result in %, Table 5a. In short, it runs like this:
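Competition curves from scintillation-counted specific binding (total minus binding with excess unlabelled ligand) were Hill-fitted to give IC50, converted to Ki via Cheng-Prusoff using Scatchard-derived Kd.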

The target of assay [4] is T3, 5-HT7 receptor (Homo sapiens, UniProt P34969).
T3 construct: purchased PerkinElmer
As to the kind of experiment: Radioligand binding assay, serotoninergic 5-HT7 receptors.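 Also: test compound at 1 µM.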 To be noted: binding assay result in %, Table 5a. The gist of the method:
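Ki values used the Cheng–Prusoff equation, with KD from Scatchard analysis, applied to IC50 from Hill fits of human 5-HT7 radioligand competition curves. Bound radioligand was counted by scintillation, and excess unlabelled ligand set the non-specific binding.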

Assay [5] concerns the target T4, α2C adrenergic receptors (Homo sapiens, UniProt P18825).
T4 construct: expressed in transfected cells; host or cells: CHO cells
T4 sequence (P18825 1-462): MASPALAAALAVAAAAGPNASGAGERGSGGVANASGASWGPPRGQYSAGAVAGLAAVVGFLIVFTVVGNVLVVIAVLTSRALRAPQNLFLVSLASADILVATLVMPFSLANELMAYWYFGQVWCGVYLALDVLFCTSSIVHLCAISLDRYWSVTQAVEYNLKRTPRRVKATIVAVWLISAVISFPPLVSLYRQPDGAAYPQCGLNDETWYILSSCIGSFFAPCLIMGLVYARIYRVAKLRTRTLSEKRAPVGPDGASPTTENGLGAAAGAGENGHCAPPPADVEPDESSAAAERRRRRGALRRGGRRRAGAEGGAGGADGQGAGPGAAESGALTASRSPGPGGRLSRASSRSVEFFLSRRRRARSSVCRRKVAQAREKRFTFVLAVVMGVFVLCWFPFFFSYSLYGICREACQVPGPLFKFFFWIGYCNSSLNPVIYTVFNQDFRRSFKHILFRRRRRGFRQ
The experiment in a line: Radioligand binding assay, adrenergic α2C receptors. To be noted: test compound 1×10^−6 M. In short, it runs like this:
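Competitive radioligand binding at human α2C receptors, with scintillation counting. Nonspecific binding defined with excess unlabelled ligand; results given as % inhibition of control specific binding. IC50 from Hill-equation fits of competition curves; Ki via Cheng-Prusoff using radioligand concentration and Scatchard-derived KD.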

Assay [6] has as its target T5, H1 histaminergic receptors (Homo sapiens, UniProt P35367).
T5 construct: expressed in transfected cells; host or cells: HEK-293 cells
As to the kind of experiment: Radioligand binding assay, histaminergic H1 receptors. The settings on record: human recombinant (HEK-293 cells), [3H]pyrilamine 1 nM. In short, it runs like this:
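Competition binding at human H1 receptors; specific binding taken as total minus non-specific binding in excess unlabelled ligand, scintillation read-out. IC50 from Hill-equation fit of competition curves; Ki by Cheng-Prusoff using radioligand concentration and Kd (from Scatchard plot).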

Assay [7] concerns σ receptors. As to the kind of experiment: Radioligand binding assay, σ receptors. To be noted: rat cerebral cortex, [3H]DTG 8 nM. In short, it runs like this:
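Values derive from radioligand displacement, with non-specific binding defined by excess cold ligand and detection by scintillation. Hill-fit IC50s were converted to Ki via Cheng-Prusoff using Scatchard-derived Kd; percent inhibition of control specific binding also reported.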

T5 sequence (P35367 whole entry): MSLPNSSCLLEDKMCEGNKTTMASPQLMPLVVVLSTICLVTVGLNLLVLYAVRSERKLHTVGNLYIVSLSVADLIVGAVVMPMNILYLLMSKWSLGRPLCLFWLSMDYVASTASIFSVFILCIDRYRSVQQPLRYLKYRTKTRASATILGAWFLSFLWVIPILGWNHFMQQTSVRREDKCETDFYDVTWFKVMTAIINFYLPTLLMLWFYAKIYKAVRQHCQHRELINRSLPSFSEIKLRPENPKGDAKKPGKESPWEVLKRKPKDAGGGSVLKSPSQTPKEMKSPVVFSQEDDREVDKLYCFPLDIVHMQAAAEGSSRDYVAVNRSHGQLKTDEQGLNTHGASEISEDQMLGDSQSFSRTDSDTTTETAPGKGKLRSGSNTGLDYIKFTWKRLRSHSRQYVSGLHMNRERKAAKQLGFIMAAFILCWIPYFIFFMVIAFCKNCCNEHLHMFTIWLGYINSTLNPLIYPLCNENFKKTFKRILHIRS
Chain of dopaminergic receptors D3 (P35462 whole entry): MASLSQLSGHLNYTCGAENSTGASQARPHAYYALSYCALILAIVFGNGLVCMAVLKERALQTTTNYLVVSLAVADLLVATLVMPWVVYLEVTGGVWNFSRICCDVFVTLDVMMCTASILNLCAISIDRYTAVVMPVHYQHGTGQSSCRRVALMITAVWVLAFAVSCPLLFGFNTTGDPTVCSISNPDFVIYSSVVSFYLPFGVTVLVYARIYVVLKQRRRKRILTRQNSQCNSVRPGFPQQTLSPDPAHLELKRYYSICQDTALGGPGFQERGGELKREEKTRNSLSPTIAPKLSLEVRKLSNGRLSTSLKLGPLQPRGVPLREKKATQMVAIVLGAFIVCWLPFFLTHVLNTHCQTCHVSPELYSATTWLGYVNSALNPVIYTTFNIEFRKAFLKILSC
T3 sequence (P34969 whole entry): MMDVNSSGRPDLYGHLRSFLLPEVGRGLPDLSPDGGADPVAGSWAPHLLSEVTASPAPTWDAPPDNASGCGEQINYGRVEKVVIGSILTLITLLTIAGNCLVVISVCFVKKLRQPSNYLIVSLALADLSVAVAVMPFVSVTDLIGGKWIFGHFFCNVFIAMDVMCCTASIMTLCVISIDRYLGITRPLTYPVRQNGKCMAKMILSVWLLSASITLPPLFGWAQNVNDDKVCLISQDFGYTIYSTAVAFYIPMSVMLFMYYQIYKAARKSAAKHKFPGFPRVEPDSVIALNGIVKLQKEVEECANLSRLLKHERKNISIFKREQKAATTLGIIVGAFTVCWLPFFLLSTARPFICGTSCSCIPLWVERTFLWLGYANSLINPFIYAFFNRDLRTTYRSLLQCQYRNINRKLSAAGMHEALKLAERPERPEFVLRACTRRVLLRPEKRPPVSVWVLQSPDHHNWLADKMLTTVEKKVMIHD
T2 sequence (P28223 whole entry): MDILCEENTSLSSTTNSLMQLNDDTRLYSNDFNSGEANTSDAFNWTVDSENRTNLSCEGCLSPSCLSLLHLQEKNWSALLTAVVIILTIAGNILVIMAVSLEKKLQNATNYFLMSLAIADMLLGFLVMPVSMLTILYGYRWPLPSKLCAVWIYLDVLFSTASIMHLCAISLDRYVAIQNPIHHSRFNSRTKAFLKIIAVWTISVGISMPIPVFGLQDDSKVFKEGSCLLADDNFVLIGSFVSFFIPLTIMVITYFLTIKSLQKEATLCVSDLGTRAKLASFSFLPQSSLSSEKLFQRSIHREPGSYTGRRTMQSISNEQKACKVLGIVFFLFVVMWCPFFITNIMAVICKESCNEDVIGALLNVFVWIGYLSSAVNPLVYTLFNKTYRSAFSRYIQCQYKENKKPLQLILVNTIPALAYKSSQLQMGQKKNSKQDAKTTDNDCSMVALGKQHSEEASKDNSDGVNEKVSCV

In the case of `O=S(=O)(N[C@@H]1CCN(CCCc2noc3cc(F)ccc23)C1)c1cc2ccc(Cl)cc2s1` [Compound 198, 6-Chloro-N-[(3R)-1-[3-(6-fluoro-1,2-benzoxazol-3-yl)propyl]pyrrolidin-3-yl]benzothiophene-2-sulphonamide], the inhibition at 1 µM in assay [1] is 97%; in assay [2] it was 45%; in assay [4], 93%; in assay [5], 80%; in assay [6] it was 81%. For the same molecule, in assay [3], the Ki stood at 0.7 nM. The “σ [%]” value in assay [7] was 86%.
As for `O=S(=O)(NC1CCN(CCCc2noc3cc(F)ccc23)C1)c1cc2ccccc2s1` (centres unmarked) [Compound 25, N-[1-[3-(6-Fluoro-1,2-benzoxazol-3-yl)propyl]pyrrolidin-3-yl]-benzothiophene-2-sulphonamide], the inhibition at 1 µM in assay [1] was 97%; in assay [2], 74%; in assay [3], 102%; in assay [4], 98%; in assay [5] it was 90%; in assay [6], 75%. The “σ [%]” value in assay [7] came to 70%.
Regarding `Cc1cc(S(=O)(=O)N[C@@H]2CCN(CCCc3noc4cc(F)ccc34)C2)c(C)s1` [Compound 222, N-[(3R)-1-[3-(6-Fluoro-1,2-benzoxazol-3-yl)propyl]pyrrolidin-3-yl]-2,5-dimethyl-thiophene-3-sulphonamide], the inhibition at 1 µM was 74% in assay [1]; 72% in assay [2]; 99% in assay [3]; 102% in assay [4]; 77% in assay [5]; 79% in assay [6]. Moreover, the “σ [%]” value in assay [7] is on record as 95%.
Take `O=S(=O)(NC1CN(CCOc2cccc3[nH]ccc23)C1)c1ccc(F)cc1` [Compound 46, 4-Fluoro-N-[1-[2-(1H-indol-4-yloxy)ethyl]azetidin-3-yl]benzene-sulphonamide]: the inhibition at 1 µM in assay [1] stood at 104%; in assay [2], 101%; in assay [3], 34%; in assay [4], 100%; in assay [5], 101%; in assay [6] it was 6%. In addition, in assay [7], the “σ [%]” value is given as 15%.
Consider `O=S(=O)(NC1CCN(CCCc2c[nH]c3ccc(Cl)cc23)C1)c1cccc(Cl)c1` (centres unmarked) [Compound 84, 3-Chloro-N-[1-[3-(5-chloro-1H-indol-3-yl)propyl]pyrrolidin-3-yl]benzenesulphonamide], for which the inhibition at 1 µM in assay [1] is 99%; in assay [2] it was 99%; in assay [3], 78%; in assay [4], 98%; in assay [5], 105%; in assay [6] it was 79%. Moreover, the “σ [%]” value in assay [7] is 59%.
On to `O=S(=O)(NCC1CN(CCOc2cccc3c2OCCO3)C1)c1ccc(Cl)c(Cl)c1` [Compound 183, 3,4-Dichloro-N-[[1-[2-(2,3-dihydro-1,4-benzodioxin-5-yloxy)ethyl]azetidin-3-yl]methyl]benzenesulphonamide], for which the inhibition at 1 µM was 79% in assay [1]; 98% in assay [2]; 94% in assay [3]; 102% in assay [4]; 99% in assay [5]; 42% in assay [6]. Besides, in assay [7], the “σ [%]” value was determined as 94%.
Regarding `Cc1c(S(=O)(=O)NCC2CCN(CCCc3noc4cc(F)ccc34)C2)sc2ccc(Cl)cc12` (centres unmarked) [Compound 238, 5-Chloro-N-[[1-[3-(6-fluoro-1,2-benzoxazol-3-yl)propyl]pyrrolidin-3-yl]methyl]-3-methyl-benzothiophene-2-sulphonamide], the inhibition at 1 µM is 95% in assay [1]; 71% in assay [2]; 99% in assay [3]; 94% in assay [4]; 94% in assay [5]; 65% in assay [6]. In assay [3], the Ki was found to be 3 nM. Also, the “σ [%]” value in assay [7] amounted to 95%.
Take `O=S(=O)(NCC1CCN(CCCc2noc3cc(F)ccc23)C1)c1ccc(-c2ccccc2)cc1` (centres unmarked) [Compound 241, N-[[1-[3-(6-Fluoro-1,2-benzoxazol-3-yl)propyl]pyrrolidin-3-yl]methyl]-4-phenyl-benzenesulphonamide]: the inhibition at 1 µM is 87% in assay [1]; 39% in assay [2]; 97% in assay [3]; 100% in assay [4]; 87% in assay [5]; 69% in assay [6]. In addition, in assay [7], the “σ [%]” value is 88%.
On to `O=S(=O)(NC1CCN(CCCc2noc3cc(F)ccc23)CC1)c1cccc2ccccc12` [Compound 34, N-[1-[3-(6-Fluoro-1,2-benzoxazol-3-yl)propyl]-4-piperidine]-naphthalene-1-sulphonamide], for which the inhibition at 1 µM worked out at 58% in assay [1]; 32% in assay [2]; 98% in assay [3]; 100% in assay [4]; 94% in assay [5]; 56% in assay [6]. For the same molecule, the “σ [%]” value in assay [7] came to 50%.
`O=S(=O)(NCC1CCN(CCCc2noc3cc(F)ccc23)C1)c1ccc2cc(Cl)ccc2c1` (centres unmarked) [Compound 237, 6-Chloro-N-[[1-[3-(6-fluoro-1,2-benzoxazol-3-yl)propyl]pyrrolidin-3-yl]methyl]naphthalene-2-sulphonamide]: the inhibition at 1 µM in assay [1] was 89%; in assay [2] it was 45%; in assay [3], 97%; in assay [4], 96%; in assay [5], 82%; in assay [6], 66%. In assay [7], the “σ [%]” value is 88%.
Take `Cc1cccc(S(=O)(=O)NC2CN(CCOc3cccc4c3OCCO4)C2)c1` [Compound 93, N-[1-[2-(2,3-Dihydro-1,4-benzodioxan-8-yloxy)ethyl]azetidin-3-yl]-3-methyl-benzenesulphonamide]: in assay [1], the “D3 [%]” value is 75%. Also, the “5-HT1A [%]” value in assay [2] turned out to be 98%. The “5-HT2A [%]” value in assay [3] is 72%. Moreover, the “5-HT7 [%]” value in assay [4] stood at 99%. Further, in assay [5], the “α2C [%]” value stood at 84%. Also, the “H1 [%]” value in assay [6] is recorded as 34%. Also, the “σ [%]” value in assay [7] stood at 35%.
Consider `O=S(=O)(N[C@H]1CCN(CCCc2noc3cc(F)ccc23)C1)c1cc2ccccc2o1` [Compound 215, N-[(3S)-1-[3-(6-Fluoro-1,2-benzoxazol-3-yl)propyl]pyrrolidin-3-yl]benzo-furan-2-sulphonamide], for which the inhibition at 1 µM in assay [1] turned out to be 85%; in assay [2], 52%; in assay [4], 98%; in assay [5], 66%; in assay [6] it was 50%. In addition, the Ki in assay [3] was determined as 1.2 nM. Further, in assay [7], the “σ [%]” value is given as 81%.
As to `O=S(=O)(NC1CN(CCOc2cccc3c2OCCO3)C1)c1cccc(F)c1` [Compound 89, N-[1-[2-(2,3-Dihydro-1,4-benzodioxan-8-yloxy)ethyl]azetidin-3-yl]-3-fluoro-benzenesulphonamide], the “D3 [%]” value in assay [1] came out at 23%. In assay [2], the “5-HT1A [%]” value came out at 98%. Also, the “5-HT2A [%]” value in assay [3] worked out at 74%. In addition, the “5-HT7 [%]” value in assay [4] was determined as 96%. Further, the “α2C [%]” value in assay [5] is 69%. Besides, in assay [6], the “H1 [%]” value is 3%. The “σ [%]” value in assay [7] is 24%.
